We go through one molecule from US20080039431A1, “Method of improving plant growth by reducing viral infections” (priority 2006, published 2008).

Each structure is given as a SMILES string. Several values for one entry are separate records, joined by “and”; a condition that tells them apart may be missing. Equal entries are not always repeated.

Assay [1] has as its system tomato spotted wilt virus (TSWV). In words: Bell pepper drench trial (Example 7). Format: in vivo, bell pepper (Capsicum annum L.). The note with it: for Percent control of incidence of TSWV in bell peppers: Abbott's formula; for Percent incidence TSWV in bell peppers: drench, prothioconazole 0.0084 g ai/plant, imidacloprid 0.01 g/plant. As to the method: Cultivation—A trial on bell pepper (Capsicum annum L.) was initiated in Molino, Fla. to see if drenches of prothioconazole alone and in combination with the insecticide imidacloprid could control TSWV in pepper. Bell pepper plants were transplanted on April 11 into 9.1 meter plots with three replications as in Example 6. Treatments were applied as a drench in 40 ml water per plant (7 days after transplanting) on April 18 as in Example 6.
Treatments— • Untreated—no in-furrow treatment. • Imidacloprid—imidacloprid@0.01 g imidacloprid/plant. • Prothioconazole—prothioconazole@0.0084 g prothioconazole/plant. • Prothioconazole+Imidacloprid—prothioconazole@0.0084 g active ingredient/plant+imidacloprid@0.01 g imidacloprid/plant.
TSWV rating—For TSWV incidence determination, the percentage of plants with TSWV symptoms (chlorosis and stunting) was determined for the four treatments at 21, 29, 38, and 47 days after treatment as in Example 6.
Synergy formula—The Colby formula for proof of synergy was used in Example 7 as in Example 6.

The test system is the same in assay [2]. In words: Non-replicated GLP peanut residue trial, Tifton, Ga. (Example 4). The assay is classed as in vivo. The note with it: for Percent row feet infected with TSWV: rated August 22, 525 row ft plot. As to the method: Cultivation—A non-replicated GLP (good laboratory practice) peanut residue trial was in progress at the Tifton, Ga., location using similar cultivation methods as in Examples 1-3. The planting and in-furrow treatment date was May 26. Prothioconazole treated seed were prepared two weeks prior on May 12. Plots were 525 row ft. Treatments— • Untreated—no in-furrow treatment, chlorothalonil maintenance only for foliar diseases. • Seed treatment, in-furrow, and foliar—prothioconazole seed treatment@10 g active ingredient/100 kg seed plus prothioconazole applied in-furrow@200 g active ingredient/Ha followed by prothioconazole@100 g active ingredient/Ha on July 21, August 4, and August 18. • Foliar only—prothioconazole@200 g active ingredient/Ha on July 21, August 4, and August 18. TSWV rating—For TSWV incidence determination, on August 22 the number of row feet per plot with TSWV symptoms (chlorosis and stunting) was determined for the three treatments. Statistics cannot be run on single-replication trials.

Assay [3] shares this test system. The assay can be described thus: Tobacco drench / broadcast spray trial (Example 8). The assay is classed as in vivo, tobacco (Nicotiana tabacum). The conditions noted are these: prothioconazole 0.0084 g ai/plant, imidacloprid 0.01 g/plant (drench), acibenzolar-S-methyl 2.47 g ai/Ha broadcast spray. The source says:
Cultivation—A trial on tobacco (Nicotiana tabacum) was initiated in Molino, Fla., to see if drenches of prothioconazole alone and in combination with the insecticide imidacloprid could control TSWV in tobacco. Plants of cultivar C-371 Gold were transplanted on April 28 into 9.1 meter plots with three replications. All eight treatments were applied after transplanting on May 1. Foliar treatments were applied as a broadcast spray, while drenches were applied as in Example 6. Acibenzolar-S-methyl is a plant defense activator used to control TSWV in tobacco.
Treatments— • Untreated • Imidacloprid@0.01 g imidacloprid/plant • Imidacloprid@0.015 g Imidacloprid/plant • Prothioconazole@0.0084 g active ingredient/plant • Prothioconazole@0.0084 g active ingredient/plant+Imidacloprid@0.01 g imidacloprid/plant • Prothioconazole@0.0084 g active ingredient/plant+Imidacloprid@0.015 g […] label. • Acibenzolar-S-methyl@2.47 g active ingredient/Ha as a broadcast spray as per label.
TSWV rating—For TSWV incidence determination the percentage of plants with TSWV symptoms (chlorosis and stunting) was determined for the eight treatments as in Example 6.

Assay [4] shares this test system. The assay can be described thus: Non-replicated GLP peanut residue trial, Molino, Fla. (Example 5). The assay is classed as in vivo. The note with it: for Percent row feet infected with TSWV: Georgia Green, rated August 23, 160 row ft plot. The method, then:
Cultivation—A non-replicated GLP peanut residue trial was conducted in Molino, Fla., using similar methods as in Examples 3 and 4. The cultivar used was Georgia Green. Prothioconazole treated seed were prepared on May 12. Plots were 160 row ft. in length. Treatments— • Untreated—no in-furrow treatment, chlorothalonil maintenance only for foliar diseases. • Seed treatment, in-furrow, and foliar—prothioconazole seed treatment@10 g active ingredient/100 kg seed plus prothioconazole applied in-furrow@200 g active ingredient/Ha followed by a program of three chlorothalonil applications and four applications of prothioconazole@100 g active ingredient/Ha. • Foliar only—A program of three chlorothalonil applications and four applications of prothioconazole@200 g active ingredient/Ha. TSWV rating—For TSWV incidence determination, on August 23 the number of row feet per plot with TSWV symptoms (chlorosis and stunting) was determined for the three treatments. Statistics cannot be run on single replication trials.

For assay [5] the test system is unchanged. In words: Replicated peanut field trials, in-furrow treatment at planting (Examples 1-3). Format: in vivo, peanut (Arachis hypogaea L.). The conditions noted are these: for TSWV Incidence (number of symptomatic feet of row per 60 foot plot): 8 replicate plots. The method, then: Cultivation—Three replicated field trials were conducted at the Bayer CropScience research farm in Tifton, Ga., using standard commercial peanut practices. Prior to planting, fields were flag staked to establish 8 replications per treatment per trial of two rows by 30 ft long (6 ft by 30 ft, 60 row feet total) each. On May 19, two cultivars of peanut (Arachis hypogaea L.), Georgia Green (two fields, Examples 1 and 2) and Carver (one field, Example 3) were planted using a two-row Monosem air planter. During the planting passes a tractor mounted compressed air system was used to spray the in-furrow treatment into the furrow before row closure. All other plots were not treated at planting. Single field passes were used to plant entire fields to ensure a uniform planting depth. Treatments— • Treated—Plots received an in-furrow application of prothioconazole at planting at a rate of 200 g prothioconazole/Ha. Through the season these plots received foliar fungicide maintenance using standard commercial fungicides including chlorothalonil and tebuconazole. • Untreated—Due to standard practices in peanut pesticide testing, each treated plot always included untreated peanut plots adjacent to the treated plots that serve as spacer rows. […] Untreated plots in Examples 1 and 3 received foliar maintenance applications to control foliar diseases. […] TSWV rating—Plots were examined periodically following emergence for differences in appearance. In certain instances, (August 19 data for example), TSWV incidence is determined as the number of row feet with TSWV symptoms (chlorosis and stunting) which was determined for the two treatments.

Turning to `OC(Cc1ccccc1Cl)(Cn1nc[nH]c1=S)C1(Cl)CC1` (centres unmarked) [Prothioconazole, prothioconazole], the “Percent control of incidence of TSWV in bell peppers” value in assay [1] (21 days after treatment) amounted to 24.90%; in assay [1] (29 days after treatment), 32.20%; in assay [1] (38 days after treatment), 12.84%; in assay [1] (47 days after treatment), 6.44%. Also, the “Percent incidence TSWV in bell peppers” value in assay [1] (21 days after treatment) is listed as 18.1%; in assay [1] (29 days after treatment), 31.8%; in assay [1] (38 days after treatment), 44.8%; in assay [1] (47 days after treatment) it was 49.4%. Also, in assay [1] (bell pepper, untreated increased by 1.4 percent), the “Increase of TSWV level from 38 DAT to 47 DAT” value is on record as “roughly 4.5%”. The “Percent row feet infected with TSWV” value came out at 30.5% in assay [2] (foliar only 200 g ai/Ha x3); 24.0% in assay [2] (seed treatment 10 g ai/100 kg seed + in-furrow 200 g ai/Ha + foliar 100 g ai/Ha x3); 16.25% in assay [4] (foliar only: three chlorothalonil and four prothioconazole 200 g ai/Ha applications); 10.6% in assay [4] (seed treatment 10 g ai/100 kg seed + in-furrow 200 g ai/Ha + three chlorothalonil and four prothioconazole 100 g ai/Ha applications). Moreover, the “Number of row feet infected with TSWV compared with foliar only program or untreated” value in assay [2] (seed treatment, in-furrow, and foliar applications) was “numerically lower”. Also, the “Percent incidence TSWV in tobacco” value in assay [3] (14 days after treatment) amounted to 32.2%; in assay [3] (21 days after treatment) it was 35.0%; in assay [3] (38 days after treatment), 56.7%. The “Number of row feet infected with TSWV compared with foliar only program or chlorothalonil maintenance only” value in assay [4] (seed treatment, in-furrow, and foliar prothioconazole applications (treatment 2)) is listed as “numerically lower”. Besides, the “Reduction of TSWV incidence compared to untreated” value in assay [5] (Carver trial (Example 3), in-furrow treatment) is “not significant”. Further, the “TSWV Incidence (number of symptomatic feet of row per 60 foot plot)” value in assay [5] (Example 1, Georgia Green, in-furrow 200 g prothioconazole/Ha at planting with foliar maintenance (chlorothalonil, tebuconazole)) was 18 feet of row per 60 foot plot (2×) and 14 feet of row per 60 foot plot and 19 feet of row per 60 foot plot (2×) and 8 feet of row per 60 foot plot and 12 feet of row per 60 foot plot and 20 feet of row per 60 foot plot; in assay [5] (Example 2, Georgia Green, in-furrow 200 g prothioconazole/Ha at planting with foliar maintenance, adjacent untreated had no foliar maintenance), 13 feet of row per 60 foot plot and 25 feet of row per 60 foot plot (2×) and 24 feet of row per 60 foot plot and 17 feet of row per 60 foot plot and 18 feet of row per 60 foot plot and 27 feet of row per 60 foot plot and 20 feet of row per 60 foot plot; in assay [5] (Example 3, Carver, in-furrow 200 g prothioconazole/Ha at planting with foliar maintenance), 17 feet of row per 60 foot plot and 8 feet of row per 60 foot plot and 19 feet of row per 60 foot plot and 26 feet of row per 60 foot plot and 12 feet of row per 60 foot plot and 16 feet of row per 60 foot plot and 7 feet of row per 60 foot plot and 9 feet of row per 60 foot plot. In assay [5] (Georgia Green (Example 1 and 2), in-furrow treatment), the “TSWV incidence in percent of row feet with symptoms compared to untreated controls” value is “significantly lower”.
